Tests used:
[1] = molecular target: T1, UGT2B7 (Homo sapiens, UniProt P16662); assay: Covalent adduct formation of NSAIDs-AG with UGT2B7; format: binding; conditions: 180 μM, UGT 3.4 μM, 6 h; for covalent adduct formation with UGT2B7 compared with the other diastereomer: R vs S diastereomer
T1 construct: purchased Corning, Inc
T1 sequence (P16662 24-529): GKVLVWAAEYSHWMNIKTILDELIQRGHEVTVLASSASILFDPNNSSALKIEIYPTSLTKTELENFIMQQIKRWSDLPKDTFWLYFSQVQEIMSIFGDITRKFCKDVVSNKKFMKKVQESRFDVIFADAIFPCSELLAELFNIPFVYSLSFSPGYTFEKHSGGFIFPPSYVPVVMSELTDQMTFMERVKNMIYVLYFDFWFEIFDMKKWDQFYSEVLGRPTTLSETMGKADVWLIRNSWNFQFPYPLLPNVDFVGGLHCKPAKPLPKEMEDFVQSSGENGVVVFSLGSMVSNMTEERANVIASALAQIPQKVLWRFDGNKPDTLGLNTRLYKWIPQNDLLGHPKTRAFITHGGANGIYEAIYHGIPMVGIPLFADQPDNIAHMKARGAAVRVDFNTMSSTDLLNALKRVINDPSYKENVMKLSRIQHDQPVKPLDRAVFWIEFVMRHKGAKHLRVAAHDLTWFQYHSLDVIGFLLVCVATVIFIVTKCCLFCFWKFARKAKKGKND
Method: (§1) The concentrations of UGT were set at 3.4 μM by the preliminary experiments on the linearity of covalent adduct formation. The covalent adduct formation of NSAIDs-AG with organelle proteins and UGT was determined according to previous reports on NSAIDs-AG with albumin with some modifications. After a deproteinization of the reaction mixture, methanol/diethyl ether (3:1) was added to the pellet. […] The concentrations of the parent NSAIDs were measured using liquid chromatography-tandem mass spectrometry (LC-MS/MS). Aliquots of 10 μL were injected into the LC-MS/MS system. The LC-MS/MS equipment consisted of an LC system (UltiMate 3000 series, Thermo Fisher Scientific, Inc.) and TSQ Endura Triple Quadrupole Mass Spectrometer with electrospray ionization (Thermo Fisher Scientific, Inc.). Finnigan Xcalibur software (Thermo Fisher Scientific, Inc.) was used for data recording and analysis. Analysis was further performed using a reversed-phase column (COSMOSIL 5C18-MSII, 2.0 mm × 150 mm, 5 μm; Nacalai Tesque, Inc.). The column temperature was set to 40 °C, and the autosampler was maintained at 10 °C. The mobile phase (A; 30% methanol in 8.5 mM ammonium formate and 0.0075% formic acid, and B; 90% methanol in 8.5 mM ammonium formate and 0.0075% formic acid) was pumped at a flow rate of 0.2 mL/min. The initial mobile phase composition was maintained at 30% mobile phase B for 1 min, changed linearly to 90% mobile phase B from 1 to 8 min, maintained for 1 min, returned to 30% mobile phase B from 9 to 10 min, and maintained for 1 min for chromatographic column equilibrium. The MS scan was operated in positive ionization mode for DIC, MEF, ZOM, KET, and NAP, or negative ionization mode, for FLU. The conditions for electrospray ionization were set at 3500 V spray voltage for positive ionization mode and 2500 V spray voltage for negative ionization mode at 400 °C capillary temperature, and 300 °C vaporizer temperature with 40 arbitrary units of nitrogen sheath gas and 10 arbitrary units of auxiliary gas. The MS scan was operated in the positive or negative ionization mode. The selected reaction monitoring (SRM) mode was used, with argon as the collision gas at 1.5 mTorr. The mass resolution was set at 0.7 full-width at half-height (unit resolution). SRM transitions (precursor and product ions) were mass to charge ratios of (m/z) 296 > 214 for DIC (positive ionization mode), 294 > 250 for DIC (negative ionization mode), 242 > 224 for MEF, 292 > 139 for ZOM, 243 > 198 for R- and S-FLU, 255 > 209 for R- and S-KET, 231 > 185 for R- and S-NAP, and 302 > 220 for DIC-d4. The collision energies were 15 V for DIC (negative ionization mode), ZOM, MEF, FLU, KET, and NAP; 35 V for DIC (positive ionization mode); and DIC-d4. The concentrations of NSAIDs were determined from a single-point calibration in every assay for NSAIDs after confirmation of linearity between area and concentrations of NSAIDs.

[2] = molecular target: T2, UGT2B4 (Homo sapiens, UniProt P06133); assay: Covalent adduct formation of NSAIDs-AG with UGT2B4; format: binding; conditions: 180 μM, UGT 3.4 μM, 6 h
T2 construct: purchased Corning, Inc
T2 sequence (P06133 24-528): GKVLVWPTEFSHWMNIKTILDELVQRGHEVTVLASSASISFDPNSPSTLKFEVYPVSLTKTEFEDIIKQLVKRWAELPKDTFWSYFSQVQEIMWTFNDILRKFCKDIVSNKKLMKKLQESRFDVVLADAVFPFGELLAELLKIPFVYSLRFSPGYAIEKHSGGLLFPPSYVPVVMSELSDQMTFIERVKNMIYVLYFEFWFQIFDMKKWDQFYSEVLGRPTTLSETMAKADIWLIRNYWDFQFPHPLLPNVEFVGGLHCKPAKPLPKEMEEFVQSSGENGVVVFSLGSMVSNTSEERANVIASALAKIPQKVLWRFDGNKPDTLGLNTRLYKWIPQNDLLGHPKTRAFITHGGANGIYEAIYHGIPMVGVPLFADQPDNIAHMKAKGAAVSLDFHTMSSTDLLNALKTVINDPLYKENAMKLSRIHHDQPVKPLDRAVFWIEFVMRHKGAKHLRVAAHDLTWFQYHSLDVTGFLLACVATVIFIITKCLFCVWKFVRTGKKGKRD
Method: as §1

[3] = molecular target: T3, UGT1A1 (Homo sapiens, UniProt P22309); assay: Covalent adduct formation of NSAIDs-AG with UGT1A1; format: binding; conditions: R vs S diastereomer; 180 μM, UGT 3.4 μM, 6 h
T3 construct: purchased Corning, Inc
T3 sequence (P22309 26-533): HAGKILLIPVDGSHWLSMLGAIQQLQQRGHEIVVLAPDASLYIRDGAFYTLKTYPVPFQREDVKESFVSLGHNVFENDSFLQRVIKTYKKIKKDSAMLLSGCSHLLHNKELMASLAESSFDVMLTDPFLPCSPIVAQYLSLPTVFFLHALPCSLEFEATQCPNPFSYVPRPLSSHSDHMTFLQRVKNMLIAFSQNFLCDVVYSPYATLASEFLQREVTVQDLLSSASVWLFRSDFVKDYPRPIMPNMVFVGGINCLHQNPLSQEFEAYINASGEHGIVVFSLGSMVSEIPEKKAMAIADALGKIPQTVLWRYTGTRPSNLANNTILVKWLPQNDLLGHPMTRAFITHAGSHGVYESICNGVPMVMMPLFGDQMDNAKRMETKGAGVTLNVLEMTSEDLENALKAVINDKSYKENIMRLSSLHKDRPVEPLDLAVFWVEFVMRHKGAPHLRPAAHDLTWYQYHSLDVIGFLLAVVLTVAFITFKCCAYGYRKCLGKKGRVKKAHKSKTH
Method: as §1, with “The conditions for electrospray ionization were set at 3500 V spray voltage for positive ionization mode and 2500 V spray voltage for negative ionization mode at 400 °C capillary temperature, and 300 °C vaporizer temperature with 40 arbitrary units of nitrogen sheath gas and 10 arbitrary units of auxiliary gas. The MS scan was operated in the positive or negative ionization mode. The selected reaction monitoring (SRM) mode was used, with argon as the collision gas at 1.5 mTorr. The mass resolution was set at 0.7 full-width at half-height (unit resolution). SRM transitions (precursor and product ions) were mass to charge ratios of (m/z) 296 > 214 for DIC (positive ionization mode), 294 > 250 for DIC (negative ionization mode), 242 > 224 for MEF, 292 > 139 for ZOM, 243 > 198 for R- and S-FLU, 255 > 209 for R- and S-KET, 231 > 185 for R- and S-NAP, and 302 > 220 for DIC-d4. The collision energies were 15 V for DIC (negative ionization mode), ZOM, MEF, FLU, KET, and NAP; 35 V for DIC (positive ionization mode); and DIC-d4.” left out

[4] = molecular target: T4, UGT1A9 (Homo sapiens, UniProt O60656); assay: Covalent adduct formation of NSAIDs-AG with UGT1A9; format: binding; conditions: R vs S diastereomer; 180 μM, UGT 3.4 μM, 6 h
T4 construct: purchased Corning, Inc
T4 sequence (O60656 26-530): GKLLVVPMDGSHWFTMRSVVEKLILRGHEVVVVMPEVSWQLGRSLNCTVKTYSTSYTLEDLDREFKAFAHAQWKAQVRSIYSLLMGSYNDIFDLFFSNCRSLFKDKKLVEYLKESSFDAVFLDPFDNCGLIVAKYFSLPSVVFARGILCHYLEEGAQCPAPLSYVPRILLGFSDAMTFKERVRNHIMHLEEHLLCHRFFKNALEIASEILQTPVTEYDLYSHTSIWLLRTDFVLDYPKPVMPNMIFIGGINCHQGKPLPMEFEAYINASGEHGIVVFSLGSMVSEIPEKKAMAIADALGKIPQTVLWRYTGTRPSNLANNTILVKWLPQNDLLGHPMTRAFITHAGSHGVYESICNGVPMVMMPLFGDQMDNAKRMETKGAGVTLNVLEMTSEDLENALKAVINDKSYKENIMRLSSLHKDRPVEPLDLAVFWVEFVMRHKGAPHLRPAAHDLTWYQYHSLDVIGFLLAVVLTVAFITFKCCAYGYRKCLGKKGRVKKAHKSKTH
Method: as §1, with “The conditions for electrospray ionization were set at 3500 V spray voltage for positive ionization mode and 2500 V spray voltage for negative ionization mode at 400 °C capillary temperature, and 300 °C vaporizer temperature with 40 arbitrary units of nitrogen sheath gas and 10 arbitrary units of auxiliary gas. The MS scan was operated in the positive or negative ionization mode. The selected reaction monitoring (SRM) mode was used, with argon as the collision gas at 1.5 mTorr. The mass resolution was set at 0.7 full-width at half-height (unit resolution). SRM transitions (precursor and product ions) were mass to charge ratios of (m/z) 296 > 214 for DIC (positive ionization mode), 294 > 250 for DIC (negative ionization mode), 242 > 224 for MEF, 292 > 139 for ZOM, 243 > 198 for R- and S-FLU, 255 > 209 for R- and S-KET, 231 > 185 for R- and S-NAP, and 302 > 220 for DIC-d4. The collision energies were 15 V for DIC (negative ionization mode), ZOM, MEF, FLU, KET, and NAP; 35 V for DIC (positive ionization mode); and DIC-d4.” left out

[5] = set-up: method as in PMID 20606003, PMID 1673415; conditions: phosphate buffers (pH 7.4); cited from earlier work

SMILES | amounts of covalent adducts with UGT2B (UGT2B7) relative to UGT1A isoforms [1] | amounts of covalent adducts with UGT2B (UGT2B4) relative to UGT1A isoforms [2] | covalent adduct formation with UGT2B7 compared with the other diastereomer [1] | covalent adduct formation with UGT1A1 compared with the other diastereomer [3] | covalent adduct formation with UGT1A9 compared with the other diastereomer [4] | amounts of covalent adducts with UGT2B7 compared with UGT1A9 [1] | covalent adduct formation with UGT2B7 ([1]; 37 °C) | half-lives in buffers [5]
CC(C(=O)OC1OC(C(=O)O)C(O)C(O)C1O)c1ccc(-c2ccccc2)c(F)c1 (stereo not shown) [R-FLU-AG] | relatively higher amounts of covalent adducts | relatively higher amounts of covalent adducts | – | – | – | – | – | –
COc1ccc2cc(C(C)C(=O)OC3OC(C(=O)O)C(O)C(O)C3O)ccc2c1 (stereo not shown) [R-NAP-AG] | relatively higher amounts of covalent adducts | relatively higher amounts of covalent adducts | significantly more covalent adducts | significantly more covalent adducts | significantly more covalent adducts | – | – | –
CC(C(=O)OC1OC(C(=O)O)C(O)C(O)C1O)c1ccc(-c2ccccc2)c(F)c1 (stereo not shown) [S-FLU-AG] | – | – | significantly higher | significantly higher | significantly higher | – | – | –
Cc1cc(CC(=O)O[C@@H]2O[C@H](C(=O)O)[C@@H](O)[C@H](O)[C@H]2O)n(C)c1C(=O)c1ccc(Cl)cc1 [ZOM-AG] | – | – | – | – | – | significantly higher amounts of covalent adducts | higher amounts of covalent adducts | relatively short half-lives

From article PMC9104950, “Stereoselective Covalent Adduct Formation of Acyl Glucuronide Metabolite of Nonsteroidal Anti-Inflammatory Drugs with UDP-Glucuronosyltransferase” (International Journal of Molecular Sciences, 2022)
